Values after ≈ are worked out from the molar mass of the structure shown. Where a SMILES comes first, the peptide text is derived from it. Bridges are numbered along the chain shown (N, C = ends). [ ]: non-standard residue; d: D form. Dab = NCC[C@H](N)C(=O)O

For assay [1], the system named is K. pneumoniae FDA-CDC AR 0080. Description: microbe, parasite or virus in culture. As to conditions: Klebsiella pneumoniae, read-out: MIC alone.
The test system of assay [2] is K. pneumoniae FDA-CDC AR 0068. Put plainly: microbe, parasite or virus in culture. As to conditions: Klebsiella pneumoniae, read-out: MIC alone.
For assay [3], the system named is K. pneumoniae FDA-CDC AR 0097. Put plainly: microbe, parasite or virus in culture. Particulars: Klebsiella pneumoniae, read-out: MIC alone.
Assay [4] concerns K. pneumoniae FDA-CDC AR 0097. Description: Time-kill kinetics in tryptic soy broth, alone and combined. It is filed as cell-based, Klebsiella pneumoniae. As to conditions: K. pneumoniae AR 0097; TSB; analogues 4 μg/ml, antibiotics 1 μg/ml. How it is done: Bacterial viable counts were determined at 0, 2, 4, 6, and 24 h after antimicrobial treatment. Bacterial surviving counts at 24 h endpoints were subjected to analysis of variance (ANOVA) followed by Tukey's honest significant difference (HSD) tests using SPSS Statistics (version 24; SPSS, Inc., Chicago, Ill., USA).

The subject of assay [5] is A. baumannii FDA-CDC AR 0070. Put plainly: microbe, parasite or virus in culture. As to conditions: Acinetobacter baumannii, read-out: MIC alone.
For assay [6], the system named is A. baumannii FDA-CDC AR 0083. Put plainly: microbe, parasite or virus in culture. Particulars: Acinetobacter baumannii, read-out: MIC alone.
Assay [7] concerns A. baumannii FDA-CDC AR 0052. Put plainly: microbe, parasite or virus in culture. As to conditions: Acinetobacter baumannii, read-out: MIC alone.
The subject of assay [8] is A. baumannii FDA-CDC AR 0037. Description: microbe, parasite or virus in culture. Particulars: Acinetobacter baumannii, read-out: MIC alone.
Assay [9] has as its system K. pneumoniae FDA-CDC AR 0044. Put plainly: microbe, parasite or virus in culture. As to conditions: Klebsiella pneumoniae, read-out: MIC alone.
Assay [10] deals with K. pneumoniae FDA-CDC AR 0034. Description: microbe, parasite or virus in culture. Particulars: Klebsiella pneumoniae, read-out: MIC alone.
Assay [11] deals with A. baumannii FDA-CDC AR 0063. Description: microbe, parasite or virus in culture. As to conditions: Acinetobacter baumannii, read-out: MIC alone.
The subject of assay [12] is K. pneumoniae FDA-CDC AR 0068.
Assay [13] deals with K. pneumoniae FDA-CDC AR 0034.
For assay [14], the system named is A. baumannii FDA-CDC AR 0052.
The test system of assay [15] is 10 carbapenem-resistant strains. Particulars: all 10 tested strains.
In assay [16] the test system is A. baumannii FDA-CDC AR 0037.
In assay [17] the test system is A. baumannii FDA-CDC AR 0063.
For assay [18], the system named is K. pneumoniae FDA-CDC AR 0044.
The subject of assay [19] is K. pneumoniae FDA-CDC AR 0080.
For assay [20], the system named is A. baumannii FDA-CDC AR 0083.
Assay [21] has as its system A. baumannii FDA-CDC AR 0070.
The test system of assay [22] is K. pneumoniae FDA-CDC AR 0097.

With `CC[C@H]1OC(=O)[C@H](C)[C@@H](O[C@H]2C[C@@](C)(OC)[C@@H](O)[C@H](C)O2)[C@H](C)[C@@H](O[C@@H]2O[C@H](C)C[C@H](N(C)C)[C@H]2O)[C@](C)(OC)C[C@@H](C)C(=O)[C@H](C)[C@@H](O)[C@]1(C)O` [clarithromycin], the MIC is > 32 µg/mL in [1]; > 32 µg/mL in assay [2]; > 32 µg/mL in assay [3]; 2 to 4 µg/mL (≈ 2.67 to 5.35 µM) in assay [5]; > 32 µg/mL in assay [6]; 4 µg/mL (≈ 5.35 µM) in assay [7]. Further, the MIC is 16 µg/mL (≈ 21.4 µM) in [8], > 32 µg/mL in assay [9], > 32 µg/mL in assay [10] and 16 to 32 µg/mL (≈ 21.4 to 42.8 µM) in assay [11]. Further, the “bactericidal activity, single agent (in words)” value in assay [4] is on record as “not bactericidal”.

On to `CC(C)C[C@@H]1NC(=O)[C@@H](Cc2ccccc2)NC(=O)[C@H](CCN)NC(=O)[C@@H](NC(=O)[C@H](CCN)NC(=O)[C@@H](N)[C@@H](C)O)CCNC(=O)[C@H]([C@@H](C)O)NC(=O)[C@H](CCN)NC(=O)[C@H](CCN)NC1=O` [polymyxin B nonapeptide, reference compound] (H-T[Dab][Dab][Dab][dF]L[Dab][Dab]T; lactam 3-C (inferred); N-terminus assumed), for which the MIC alone in assay [12] (FDA-CDC AR 0068) was >32 µg/mL; in assay [13] (FDA-CDC AR 0034), >32 µg/mL; in assay [14] (FDA-CDC AR 0052) it was >32 µg/mL; in [15], > 32 µg/mL; in assay [16] (FDA-CDC AR 0037) it was >32 µg/mL; in assay [17] (FDA-CDC AR 0063) it was >32 µg/mL. The MIC alone in [18] (FDA-CDC AR 0044), in assay [19] (FDA-CDC AR 0080), in assay [20] (FDA-CDC AR 0083), in [21] (FDA-CDC AR 0070) and in assay [22] (FDA-CDC AR 0097) was >32 µg/mL throughout. Besides, the “MIC of clarithromycin at the presence of PMBN or paenipeptin analogue at 4 μg/ml” value is reported as >32 μg/ml in [12] (K. pneumoniae AR 0068); >32 μg/ml in assay [13] (K. pneumoniae AR 0034); 0.0313-0.0625 μg/ml in [14] (A. baumannii AR 0052); 0.125-0.25 μg/ml in [16] (A. baumannii AR 0037); 0.5-1 μg/ml in assay [17] (A. baumannii AR 0063); 4 μg/ml in [18] (K. pneumoniae AR 0044). Moreover, the “MIC of clarithromycin at the presence of PMBN or paenipeptin analogue at 4 μg/ml” value in assay [19] (K. pneumoniae AR 0080) is 4 μg/ml; in assay [20] (A. baumannii AR 0083), 32 μg/ml; in [21] (A. baumannii AR 0070), 0.25-0.5 μg/ml; in assay [22] (K. pneumoniae AR 0097) it was 32 μg/ml. The “MIC of rifampicin at the presence of PMBN or paenipeptin analogue at 4 μg/ml” value was 2-8 μg/ml in assay [12] (K. pneumoniae AR 0068); 1 μg/ml in assay [13] (K. pneumoniae AR 0034); 0.0625-0.125 μg/ml in assay [14] (A. baumannii AR 0052); 0.25 μg/ml in assay [16] (A. baumannii AR 0037); 0.125 μg/ml in assay [17] (A. baumannii AR 0063); 2 μg/ml in [18] (K. pneumoniae AR 0044). The “MIC of rifampicin at the presence of PMBN or paenipeptin analogue at 4 μg/ml” value is recorded as >32 μg/ml in [19] (K. pneumoniae AR 0080), 8 μg/ml in [20] (A. baumannii AR 0083), 0.0625-0.125 μg/ml in [21] (A. baumannii AR 0070) and 16 μg/ml in assay [22] (K. pneumoniae AR 0097).

Values taken from US11364275B2, “Linear lipopeptide paenipeptins and methods of using the same” (priority 2017, dated 2022).
